Reference: paper PMC8026785, “The pharmacokinetics of [^18F]UCB-H revisited in the healthy non-human primate brain” (EJNMMI Research, 2021)
Values joined by “and” are separate entries in the source; they are usually repeats but may differ in a detail not shown here. Equal values may be shown once.

Target: T1, SV2A (Macaca fascicularis, UniProt Q4R4X3)
T1 construct: The current study evaluates [^18F]UCB-H pharmacokinetics in healthy NHPs; from tissue; host or cells: brain of living healthy cynomolgus monkeys (in vivo PET)
Assay: Brain PET kinetic modelling (1TCM, 2TCM, 2TCM-c, Logan), test-retest
Type: in vivo, cynomolgus monkeys (Macaca fascicularis)
Procedure: All four non-human primates (NHP) underwent a 2-h (2 h) test and retest PET scan; two NHP underwent an additional 4-h (4 h) retest PET scan. Three NHP underwent one 4-h (4 h) displacement PET scan. Arterial blood sampling was performed during test and retest scans with PET imaging spaced by at least 3 weeks between each scan. To this end, the femoral artery opposite to the saphenous vein used for radioligand injection was cannulated. For the 2-h (2 h) scans, we collected in total 28 blood samples of 1 mL: 16 samples during the first 5 min followed by […] every 5 min and […] every 10 min. For the 4 h scans, we collected an additional 6 samples every 20 min during the last two hours (34 samples in total). Larger samples (2 – 3 mL) were collected at 5, 15, 30, 60, 90, 120 min (2 h) and at 180, 240 min (4 h) for metabolite analysis. Displacement of [^18F]UCB-H was done by intravenous (IV) administration 90 min after [^18F]UCB-H injection of a bolus of 30 mg/kg LEV, or of 80 µg/kg (≈250 nmol/kg) or 5 mg/kg (≈15 µmol/kg) of cold [^19F]-UCB-H. Full experimental design of all NHP is outlined in Additional file 1: Table 1.
PET imaging was performed on the microPET FOCUS220 (Siemens) under standard anesthesia and monitoring procedures. Data acquisition started with the IV bolus injection of [^18F]UCB-H (32.9 ± 1.0 MBq/kg, 0.35 ± 0.07 µg/kg). Dynamic PET images were reconstructed using standard OSEM-2D algorithms while correcting for radioactive decay, scatter, attenuation and detectors inhomogeneity, which were measured prior to PET scanning using respectively ^57Co and ^68Ge external sources.
PET image analysis was performed using PMOD software version 3.8 (PMOD Technologies Ltd., Zurich, Suisse). After individual co-registration of PET-MR images, a cynomolgus atlas published by Ballanger and coworkers was normalized to PET images to extract time activity curves in different brain regions. Volumes of interest (VOI) were cerebral white matter (16.7 cm^3), striatum (0.24 cm^3), thalamus (0.89 cm^3), cerebellum (3.83 cm^3), frontal—(2.50 cm^3), parietal—(5.35 cm^3), and temporal (8.22 cm^3) cortex, and whole brain (72.2 cm^3) as a composite region of all regions in the atlas. [^18F]UCB-H pharmacokinetics were evaluated by analyzing the time activity curves of the test- and retest scans using 1- and 2-tissue compartment models (unconstrained and constrained with global K1/k2 coupled fit across all regions, further referred to as 2TCM and 2TCM-c), and Logan graphical analysis with a fixed t* at 60 min [33] using the arterial plasma input function corrected for radio-metabolites to derive the volume of distribution in each region. Percentage standard error (%SE) was estimated from the theoretical parameter covariance matrix. Only reliable estimates (%SE less than 25%) were included in the current analyses. For the three drug studies, percent displacement of the total activity in the whole brain was estimated relative to an average baseline constructed from the two 4 h baseline studies. Briefly, Standardized Uptake Value (SUV) time activity curves (TACs) were calculated for the two baseline and the three displacement studies. Then, each curve was normalized to the SUV at t = 90 min, corresponding to the timeframe immediately before the administration of the drugs in the displacement studies. Baseline curves were averaged and the percent displacement of total activity was calculated as (baseline-displacement)/baseline at a given time post drug administration (see “Results”).
Statistical analysis was performed using R software (version 3.3.1.). Plasma, intact parent fraction and time activity curves were statistically compared between subjects using a one-factor variance analysis. Absolute Test–Retest variability (aTRV) of PET quantification parameters was calculated as ABS(test—retest) / AVERAGE(test, retest). […]

[1] = White Matter, Retest, individual NHP
[2] = White Matter, Test, individual NHP

T1 sequence (Q4R4X3 whole entry): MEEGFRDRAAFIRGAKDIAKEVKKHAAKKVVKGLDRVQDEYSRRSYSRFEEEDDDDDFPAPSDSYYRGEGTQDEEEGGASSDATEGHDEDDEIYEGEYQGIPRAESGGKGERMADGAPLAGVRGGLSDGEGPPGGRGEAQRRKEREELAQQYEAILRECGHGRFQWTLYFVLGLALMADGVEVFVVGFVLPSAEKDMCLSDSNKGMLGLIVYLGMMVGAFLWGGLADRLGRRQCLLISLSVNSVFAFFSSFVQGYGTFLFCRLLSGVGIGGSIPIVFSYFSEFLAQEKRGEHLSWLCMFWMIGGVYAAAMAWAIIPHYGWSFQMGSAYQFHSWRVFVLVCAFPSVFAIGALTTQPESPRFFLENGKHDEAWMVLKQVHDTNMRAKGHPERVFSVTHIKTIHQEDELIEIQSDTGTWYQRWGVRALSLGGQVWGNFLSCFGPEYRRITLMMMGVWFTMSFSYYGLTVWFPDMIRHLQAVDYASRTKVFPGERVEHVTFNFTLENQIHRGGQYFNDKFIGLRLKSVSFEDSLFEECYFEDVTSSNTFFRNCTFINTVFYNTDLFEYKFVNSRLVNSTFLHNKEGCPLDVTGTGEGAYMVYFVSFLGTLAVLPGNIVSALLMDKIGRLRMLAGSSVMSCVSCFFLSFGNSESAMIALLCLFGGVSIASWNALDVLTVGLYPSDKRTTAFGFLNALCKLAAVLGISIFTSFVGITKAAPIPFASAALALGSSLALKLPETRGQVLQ

O=C1C[C@H](c2cc(F)c(F)c(F)c2)CN1Cc1ccncc1[18F] [[^18F]UCB-H]
k3/k4 (2TCM-c) (Thalamus, Retest, individual NHP): 0.64 and 2.00 and 0.90 and 0.33
VT (1TCM) (Thalamus, Retest, mean): 13.4 mL/cm^3
VT (2TCM) (Thalamus, Retest, mean): 13.0 mL/cm^3
VT (2TCM-c) (Thalamus, Retest, mean): 14.2 mL/cm^3
VT (Logan (t* = 60)) (Thalamus, Retest, mean): 14.3 mL/cm^3
k3/k4 (BPND) (2TCM-c) (Thalamus, Retest, mean): 0.97
K1 (2TCM) (Thalamus, Test, individual NHP): 0.21 ml/cm^3 /min and 0.24 ml/cm^3 /min and 0.45 ml/cm^3 /min and 0.53 ml/cm^3 /min
K1 (2TCM-c) (Thalamus, Test, individual NHP): 0.20 ml/cm^3 /min and 0.25 ml/cm^3 /min and 0.48 ml/cm^3 /min and 0.54 ml/cm^3 /min
K1/k2 (2TCM) (Thalamus, Test, individual NHP): 11.03 ml/cm^3 and 7.51 ml/cm^3 and 12.45 ml/cm^3 and 12.69 ml/cm^3
K1/k2 (2TCM-c) (Thalamus, Test, individual NHP): 7.86 ml/cm^3 and 4.35 ml/cm^3 and 8.22 ml/cm^3 and 10.99 ml/cm^3
VT (1TCM) (Thalamus, Test, individual NHP): 12.88 ml/cm^3 and 10.42 ml/cm^3 and 16.04 ml/cm^3 and 14.02 ml/cm^3
VT (2TCM) (Thalamus, Test, individual NHP): 13.65 ml/cm^3 and 17.60 ml/cm^3
VT (2TCM-c) (Thalamus, Test, individual NHP): 17.47 ml/cm^3 and 11.10 ml/cm^3 and 16.27 ml/cm^3 and 15.12 ml/cm^3
VT (Logan) (Thalamus, Test, individual NHP): 14.58 ml/cm3 and 12.30 ml/cm3 and 17.00 ml/cm3 and 15.59 ml/cm3
k3/k4 (2TCM) (Thalamus, Test, individual NHP): 0.82
k3/k4 (2TCM-c) (Thalamus, Test, individual NHP): 1.00 and 1.56 and 1.18 and 0.38
VT (1TCM) (Thalamus, Test, mean): 13.3 mL/cm^3
VT (2TCM) (Thalamus, Test, mean): 15.6 mL/cm^3
VT (2TCM-c) (Thalamus, Test, mean): 15.0 mL/cm^3
VT (Logan (t* = 60)) (Thalamus, Test, mean): 14.9 mL/cm^3
k3/k4 (BPND) (2TCM-c) (Thalamus, Test, mean): 1.03
K1 (2TCM) [1]: 0.29 ml/cm^3 /min and 0.49 ml/cm^3 /min and 0.32 ml/cm^3 /min and 0.35 ml/cm^3 /min
K1 (2TCM-c) [1]: 0.30 ml/cm^3 /min and 0.44 ml/cm^3 /min and 0.32 ml/cm^3 /min and 0.35 ml/cm^3 /min
K1/k2 (2TCM) [1]: 1.66 ml/cm^3 and 10.04 ml/cm^3 and 11.74 ml/cm^3
K1/k2 (2TCM-c) [1]: 7.25 ml/cm^3 and 4.64 ml/cm^3 and 9.07 ml/cm^3 and 10.70 ml/cm^3
VT (1TCM) [1]: 10.59 ml/cm^3 and 12.63 ml/cm^3 and 13.80 ml/cm^3 and 12.91 ml/cm^3
VT (2TCM) [1]: 10.58 ml/cm^3 and 12.82 ml/cm^3 and 14.29 ml/cm^3
VT (2TCM-c) [1]: 10.59 ml/cm^3 and 12.79 ml/cm^3 and 18.23 ml/cm^3 and 13.35 ml/cm^3
VT (Logan) [1]: 11.11 ml/cm3 and 12.93 ml/cm3 and 16.97 ml/cm3 and 13.41 ml/cm3
k3/k4 (2TCM) [1]: 6.72
k3/k4 (2TCM-c) [1]: 0.46 and 1.76 and 0.27
K1 (2TCM) [2]: 0.17 ml/cm^3 /min and 0.19 ml/cm^3 /min and 0.41 ml/cm^3 /min
K1 (2TCM-c) [2]: 0.17 ml/cm^3 /min and 0.20 ml/cm^3 /min and 0.42 ml/cm^3 /min
K1/k2 (2TCM) [2]: 9.57 ml/cm^3 and 6.00 ml/cm^3 and 9.76 ml/cm^3 and 11.24 ml/cm^3
K1/k2 (2TCM-c) [2]: 7.86 ml/cm^3 and 4.35 ml/cm^3 and 8.22 ml/cm^3 and 10.99 ml/cm^3
VT (1TCM) [2]: 12.00 ml/cm^3 and 9.44 ml/cm^3 and 14.88 ml/cm^3 and 12.88 ml/cm^3
VT (2TCM) [2]: 11.61 ml/cm^3 and 16.36 ml/cm^3
VT (2TCM-c) [2]: 15.44 ml/cm^3 and 10.47 ml/cm^3 and 15.61 ml/cm^3
VT (Logan) [2]: 14.19 ml/cm3 and 11.20 ml/cm3 and 15.99 ml/cm3 and 14.37 ml/cm3
k3/k4 (2TCM) [2]: 0.94
k3/k4 (2TCM-c) [2]: 1.41 and 1.09
ICC of 2TCM-c VT (White matter): 0.43
ICC of Logan (t* = 60) VT (White matter): 0.62
aTRV of 2TCM-c VT (White matter): 24%
aTRV of Logan (t* = 60) VT (White matter): 13%
VT (1TCM) (White matter, Retest, mean): 12.5 mL/cm^3
VT (2TCM) (White matter, Retest, mean): 12.6 mL/cm^3
VT (2TCM-c) (White matter, Retest, mean): 13.7 mL/cm^3
VT (Logan (t* = 60)) (White matter, Retest, mean): 13.6 mL/cm^3
k3/k4 (BPND) (2TCM-c) (White matter, Retest, mean): 0.83
VT (1TCM) (White matter, Test, mean): 12.3 mL/cm^3
VT (2TCM) (White matter, Test, mean): 14.0 mL/cm^3
VT (2TCM-c) (White matter, Test, mean): 13.8 mL/cm^3
VT (Logan (t* = 60)) (White matter, Test, mean): 13.9 mL/cm^3
k3/k4 (BPND) (2TCM-c) (White matter, Test, mean): 1.25
BPND lower compared to [^11C]UCB-J and other [^18F]-labelled SV2A radioligands (cynomolgus NHP): 3 to fourfold lower
VT lower compared to [^11C]UCB-J and other [^18F]-labelled SV2A radioligands (cynomolgus NHP): ~ 50%
free fraction in tissue fND (cynomolgus monkey, in vivo): 6.1 ± 1.3% and ~ 6%
tissue influx parameter K1 (grey matter regions, 2TCM and 2TCM-c): 0.37 ± 0.01 mL/cm^3/min
average VND (K1/k2 from 2TCM-c) (over all VOIs and animals): 7.89 ± 1.23 mL/cm^3
